In patent US5639766A, “N-substituted azaheterocyclic carboxylic acids and esters thereof” (Novo Nordisk A/S, priority 1993, dated 1997):
Structures can show the parent of a compound that is named as a salt.

Tests used:
GABA uptake = details: oral; Yunger, L. M. et al., 1984; cited from earlier work
[1] = test system: GABA uptake from the synaptic cleft into presynaptic nerve terminals and glial cells; details: background statement; cited from earlier work
[2] = background statement; cited from earlier work
[^3 H]-GABA uptake = In vitro inhibition of [^3 H]-GABA uptake in rat cortical tissue; format: biochemical, Male wistar rat; details: rat cortical tissue homogenate, pH 7.5, 60 minutes at 30° C.
Method: Values for in vitro inhibition of [^3 H]-GABA uptake for the invention compounds were assessed essentially by the method of Fjalland (Acta Pharmacol. Toxicol. 1978, 42, 73-76). Male wistar rat cortical tissue was gently homogenized by hand using a glass/PTFE homogenizer in 10 volumes of 0.32M sucrose. Incubation was performed in a 40 mM tris HCl buffer (pH 7.5 at 30° C.) containing […], 4 mM MgSO4, […] and 10 mM glucose, for 60 minutes at 30° C. Values for inhibition of GABA uptake for some representative compounds are recorded in Table I.

IC50 ([^3 H]-GABA uptake)	Molecule	orally active inhibitors of GABA uptake (GABA uptake)	other results
–	O=C(O)CC1CCN(CCC=C(c2ccccc2)c2ccccc2)C1 (stereo not drawn) [SK&F 100561, N-(4,4-diphenyl-3-buten-1-yl)-homo-β-proline]	orally active inhibitors of GABA uptake	–
–	O=C(O)C1CCCNC1 (centres unmarked) [3-piperidinecarboxylic acid]	–	inhibitor of GABA uptake [1]: well-known and potent inhibitor of GABA uptake; cross the blood-brain barrier [2]: unable to cross the blood-brain barrier
–	O=C(O)C1CCCN(CCC=C(c2ccccc2)c2cccs2)C1 (centres unmarked) [SK&F 100604J, N-(4-phenyl-4-(2-thienyl)-3-buten-1-yl)nipecotic acid]	orally active inhibitors of GABA uptake	–
417 nM	O=C(O)[C@@H]1CCCN(CCON=C2CCCC=C2c2ccccc2)C1 [Example 2, (R)-1-(2-(((2-Phenylcyclohex-2-enylidene)amino)oxy)ethyl)-3-piperidinecarboxylic acid hydrochloride]	–	–
–	O=C(O)C1CCCN(CCC=C(c2ccccc2)c2ccccc2)C1 (centres unmarked) [SK&F 89976A, N-(4,4-diphenyl-3-buten-1-yl)nipecotic acid]	orally active inhibitors of GABA uptake	–
9500 nM	(R)-1-(2-(((2-(Benzylidene)cyclohexylidene)amino)oxy)ethyl)-3-piperidinecarboxylic acid hydrochloride [Example 3]	–	–
332 nM	O=C(O)[C@@H]1CCCN(CCON=C2CCCCC2c2ccccc2)C1 (stereo partly drawn) [Example 1, (R)-1-(2-(((2-Phenylcyclohexylidene)amino)oxy)ethyl)-3-piperidinecarboxylicacid hydrochloride]	–	–
–	O=C(O)C1=CCCN(CCC=C(c2ccccc2)c2ccccc2)C1 [SK&F 100330A, N-(4,4-diphenyl-3-buten-1-yl)guvacine]	orally active inhibitors of GABA uptake	–
819 nM	O=C(O)[C@@H]1CCCN(CCON=C2c3ccccc3CCC2c2ccccc2)C1 (stereo partly drawn) [Example 4, (R)-1-(2-(((2-Phenyl-1,2,3,4-tetrahydro-1-naphthylidene)amino)oxy)ethyl)-3-piperidinecarboxylic acid hydrochloride]	–	–
1380 nM	O=C(O)[C@@H]1CCCN(CCON=C2CC(c3ccccc3)c3ccccc32)C1 (stereo partly drawn) [Example 5, (R)-1-(2-(((3-Phenyl-1-indanylidene)amino)oxy)ethyl)-3-piperidinecarboxylicacid hydrochloride]	–	–
